Experimental data from US12472170B2, “Use of glutamate 2B receptor antagonists and sigma receptor agonists as antitussives” (Seyltx, Inc., priority 2019, dated 2025).
Values joined by “and” are separate entries in the source; they are usually repeats but may differ in a detail not shown here. Identical values can stand only once.

Tested on: citric acid (1M) evoked cough in guinea pigs
Experiment: Citric acid (1M) aerosol-evoked coughs and sneezes in conscious guinea pigs after oral pre-treatment
Format: in vivo, Male Dunkin Hartley guinea pigs
Protocol: The guinea pig species used in one study was twenty four Male Dunkin Hartley guinea pigs, each weighing between 300 and 350 g, which were supplied by Marshall Bioresources Ltd, UK.
A test compound, Ifenprodil, and Gefapixant (in powder form) were prepared and formulated by initially adding 100% propylene glycol at the required volume for the final treatment buffer. The additional buffer ingredients were added in a stepwise fashion, initially solutol and then captisol. Each ingredient was added in a volume equivalent to that which is required for the final volume of treatment buffer for the stock formulation.
In particular, for Gefapixant, this was 0.7 mg/mL, a concentration that delivers 3.5 mg/Kg in a dose volume of 5 mL/Kg. For Ifenprodil, this was 0.3 mg/mL, a concentration that delivers 1.5 mg/Kg in a dose volume of 5 mL/Kg.
Prior to the addition of each buffer ingredient, the test compound formulations were sonicated for 15 min using a Branson 1510 Sonicator. Afterwards, the initial formulation of the test compound and Gefapixant were diluted with a prepared buffer vehicle to provide additional dosing formulations. This was 0.01 to 0.2 mg/ml, preferably 0.06 mg/mL, a dose that delivers 0.3 mg/Kg in a dose volume of 5 mL/Kg.
The final test compound buffer vehicle comprised of 10:10:80 mix of propylene glycol:20% Solutol in PBS:5% Captisol in PBS.
All final test and control formulations were sonicated for 30 min prior to dosing to generate an even suspension or to ensure that the formulation had visibly dissolved.
The animals were first pre-treated (5 mL/Kg, p.o.) with the vehicle, the test compound, or Gefapixant prior to tussive agent (citric acid) exposure, using the amounts set out in Table 1 below. In each case, the route of administration of the treatment was oral.
Animals receiving Gefapixant (3.5 mg/Kg) were dosed 2 hours prior to tussive agent exposure. Animals receiving Ifenprodil (1.5 mg/Kg) were dosed 30 minutes prior to tussive agent exposure.
10 min prior to the tussive evaluation, each animal was individually placed into a purpose built exposure chamber with a supplied airflow through a nebuliser of 2 L/min, and allowed to settle into its new environment.
Following the acclimatisation period, each animal was then exposed for 10 min to an aerosol of 1M citric acid using an ultrasonic nebuliser (Aerogen) set at a nominal liquid consumption rate of 0.6 mL/min.
Coughs and sneezes elicited during the 10 minute aerosol of 1M citric acid, and a subsequent 5 minute observation period, were recorded manually to monitor the animal's welfare. […] The data was analysed for onset of cough, cough numbers and frequency, and sneezes.
The following measurements and assessments were taken for each guinea pig: • Mean total number of coughs evoked in each treatment group • Mean onset of first cough in each group • Mean number of coughs per minute during citric acid exposure in each treatment group
Inter-group deviations were statistically analyzed by a one-way analysis of variance (ANOVA). In the case of significant difference in the mean values among the different levels of treatment, comparisons versus the citric acid vehicle group were carried out using the Dunnett's test. p<0.05 was considered statistically significant.

[1] = Mean of n=6 animals, 10 min Citric acid (1M) exposure, Gefapixant 3.5 mg/Kg p.o., Ifenprodil 1.5 mg/Kg
[2] = Mean of n=6 animals, Post Exposure (5 mins) after 10 min Citric acid (1M), Gefapixant 3.5 mg/Kg p.o., Ifenprodil 1.5 mg/Kg
[3] = Total of n=6 animals, 10 min Citric acid (1M) exposure, Gefapixant 3.5 mg/Kg p.o., Ifenprodil 1.5 mg/Kg
[4] = Total of n=6 animals, Post Exposure (5 mins) after 10 min Citric acid (1M), Gefapixant 3.5 mg/Kg p.o., Ifenprodil 1.5 mg/Kg
[5] = individual animals (ID 1-6), 10 min Citric acid (1M) exposure, Gefapixant 3.5 mg/Kg p.o., Ifenprodil 1.5 mg/Kg
[6] = individual animals (ID 1-6), Post Exposure (5 mins) after 10 min Citric acid (1M), Gefapixant 3.5 mg/Kg p.o., Ifenprodil 1.5 mg/Kg

COc1cc(C(C)C)c(Oc2cnc(N)nc2N)cc1S(N)(=O)=O [Gefapixant]
Total Coughs, Mean (10 min citric acid (1M) exposure + 5 min post exposure, group mean, n=6): 23.67
Total Coughs, individual animal (10 min citric acid (1M) exposure + 5 min post exposure, individual animals 1-6): 16 and 26 and 24 and 23 and 33 and 20
average number of coughs per animal (total number of coughs) (10 min citric acid (1M) exposure + 5 min recovery, Gefapixant 3.5 mg/Kg p.o. 2 hrs prior, Ifenprodil 1.5 mg/Kg p.o. 30 min prior, n=6): 23.67 coughs per animal
reduction in mean cough frequency vs untreated control (Ifenprodil 1.5 mg/kg (p<0.01), Gefapixant 3.5 mg/kg (p<0.05)): 20%
Sneezes, Observation Period 0-1, group Mean [1]: 0.2
Sneezes, Observation Period 1-2, group Mean [1]: 0.3
Sneezes, Observation Period 2-3, group Mean [1]: 0.3
Sneezes, Observation Period 3-4, group Mean [1]: 0.2
Sneezes, Observation Period 4-5, group Mean [1]: 0.5
Sneezes, Observation Period 5-6, group Mean [1]: 0.5
Sneezes, Observation Period 6-7, group Mean [1]: 0.5
Sneezes, Observation Period 7-8, group Mean [1]: 0.0
Sneezes, Observation Period 8-9, group Mean [1]: 0.5
Sneezes, Observation Period 9-10, group Mean [1]: 0.2
Sneezes, Observation Period 10-11, group Mean [2]: 0.0
Sneezes, Observation Period 11-12, group Mean [2]: 0.0
Sneezes, Observation Period 12-13, group Mean [2]: 0.0
Sneezes, Observation Period 13-14, group Mean [2]: 0.0
Sneezes, Observation Period 14-15, group Mean [2]: 0.0
Total Sneezes, group Mean (Mean of n=6 animals, whole observation period 0-15 (10 min Citric acid (1M) exposure + Post Exposure 5 mins), Gefapixant 3.5 mg/Kg p.o., Ifenprodil 1.5 mg/Kg): 3.17
Sneezes, Observation Period 0-1, group Total [3]: 1.0
Sneezes, Observation Period 1-2, group Total [3]: 2.0
Sneezes, Observation Period 2-3, group Total [3]: 2.0
Sneezes, Observation Period 3-4, group Total [3]: 1.0
Sneezes, Observation Period 4-5, group Total [3]: 3.0
Sneezes, Observation Period 5-6, group Total [3]: 3.0
Sneezes, Observation Period 6-7, group Total [3]: 3.0
Sneezes, Observation Period 7-8, group Total [3]: 0.0
Sneezes, Observation Period 8-9, group Total [3]: 3.0
Sneezes, Observation Period 9-10, group Total [3]: 1.0
Sneezes, Observation Period 10-11, group Total [4]: 0.0
Sneezes, Observation Period 11-12, group Total [4]: 0.0
Sneezes, Observation Period 12-13, group Total [4]: 0.0
Sneezes, Observation Period 13-14, group Total [4]: 0.0
Sneezes, Observation Period 14-15, group Total [4]: 0.0
first onset of cough (citric acid (1M) exposure, Gefapixant 3.5 mg/Kg p.o., Ifenprodil 1.5 mg/Kg p.o., group mean, n=6): 49.7 s
average number of sneezes per animal (citric acid (1M) exposure, Gefapixant 3.5 mg/Kg p.o., Ifenprodil 1.5 mg/Kg p.o., n=6): 3.17 sneezes per animal
Onset (sec), Mean (citric acid (1M) exposure, group mean, n=6): 49.7 s
Onset (sec), individual animal (citric acid (1M) exposure, individual animals 1-6): 72 s and 24 s and 64 s and 36 s and 32 s and 70 s
Sneezes, Observation Period 0-1 [5]: 0 (5×) and 1
Sneezes, Observation Period 1-2 [5]: 0 (4×) and 1 (2×)
Sneezes, Observation Period 2-3 [5]: 1 (2×) and 0 (4×)
Sneezes, Observation Period 3-4 [5]: 0 (5×) and 1
Sneezes, Observation Period 4-5 [5]: 1 (3×) and 0 (3×)
Sneezes, Observation Period 5-6 [5]: 0 (3×) and 1 (3×)
Sneezes, Observation Period 6-7 [5]: 1 (3×) and 0 (3×)
Sneezes, Observation Period 7-8 [5]: 0
Sneezes, Observation Period 8-9 [5]: 1 (3×) and 0 (3×)
Sneezes, Observation Period 9-10 [5]: 0 (5×) and 1
Sneezes, Observation Period 10-11 [6]: 0
Sneezes, Observation Period 11-12 [6]: 0
Sneezes, Observation Period 12-13 [6]: 0
Sneezes, Observation Period 13-14 [6]: 0
Sneezes, Observation Period 14-15 [6]: 0
Total Sneezes (individual animals (ID 1-6), whole observation period 0-15 (10 min Citric acid (1M) exposure + Post Exposure 5 mins), Gefapixant 3.5 mg/Kg p.o., Ifenprodil 1.5 mg/Kg): 4 (2×) and 3 and 5 and 2 and 1
Cough, observation period 0-1, Mean (min 0-1 of citric acid (1M) exposure, group mean, n=6): 0.5
Cough, observation period 0-1, individual animal (min 0-1 of citric acid (1M) exposure, individual animals 1-6): 0 (3×) and 1 (3×)
Cough, observation period 0-1, Total (min 0-1 of citric acid (1M) exposure, sum over 6 animals): 3.0
Cough, observation period 1-2, Mean (min 1-2 of citric acid (1M) exposure, group mean, n=6): 2.0
Cough, observation period 1-2, individual animal (min 1-2 of citric acid (1M) exposure, individual animals 1-6): 1 (2×) and 3 (2×) and 2 (2×)
Cough, observation period 1-2, Total (min 1-2 of citric acid (1M) exposure, sum over 6 animals): 12.0
Cough, observation period 2-3, Mean (min 2-3 of citric acid (1M) exposure, group mean, n=6): 3.0
Cough, observation period 2-3, individual animal (min 2-3 of citric acid (1M) exposure, individual animals 1-6): 1 and 3 (2×) and 4 and 5 and 2
Cough, observation period 2-3, Total (min 2-3 of citric acid (1M) exposure, sum over 6 animals): 18.0
Cough, observation period 3-4, Mean (min 3-4 of citric acid (1M) exposure, group mean, n=6): 2.3
Cough, observation period 3-4, individual animal (min 3-4 of citric acid (1M) exposure, individual animals 1-6): 2 (3×) and 3 and 4 and 1
Cough, observation period 3-4, Total (min 3-4 of citric acid (1M) exposure, sum over 6 animals): 14.0
Cough, observation period 4-5, Mean (min 4-5 of citric acid (1M) exposure, group mean, n=6): 2.8
Cough, observation period 4-5, individual animal (min 4-5 of citric acid (1M) exposure, individual animals 1-6): 2 (2×) and 3 (3×) and 4
Cough, observation period 4-5, Total (min 4-5 of citric acid (1M) exposure, sum over 6 animals): 17.0
Cough, observation period 5-6, Mean (min 5-6 of citric acid (1M) exposure, group mean, n=6): 2.7
Cough, observation period 5-6, individual animal (min 5-6 of citric acid (1M) exposure, individual animals 1-6): 1 and 3 (3×) and 2 and 4
Cough, observation period 5-6, Total (min 5-6 of citric acid (1M) exposure, sum over 6 animals): 16.0
Cough, observation period 6-7, Mean (min 6-7 of citric acid (1M) exposure, group mean, n=6): 2.3
Cough, observation period 6-7, individual animal (min 6-7 of citric acid (1M) exposure, individual animals 1-6): 1 and 2 (3×) and 4 and 3
Cough, observation period 6-7, Total (min 6-7 of citric acid (1M) exposure, sum over 6 animals): 14.0
Cough, observation period 7-8, Mean (min 7-8 of citric acid (1M) exposure, group mean, n=6): 1.7
Cough, observation period 7-8, individual animal (min 7-8 of citric acid (1M) exposure, individual animals 1-6): 2 (4×) and 1 (2×)
Cough, observation period 7-8, Total (min 7-8 of citric acid (1M) exposure, sum over 6 animals): 10.0
Cough, observation period 8-9, Mean (min 8-9 of citric acid (1M) exposure, group mean, n=6): 2.0
Cough, observation period 8-9, individual animal (min 8-9 of citric acid (1M) exposure, individual animals 1-6): 2 (4×) and 3 and 1
Cough, observation period 8-9, Total (min 8-9 of citric acid (1M) exposure, sum over 6 animals): 12.0
Cough, observation period 9-10, Mean (min 9-10 of citric acid (1M) exposure, group mean, n=6): 1.7
Cough, observation period 9-10, individual animal (min 9-10 of citric acid (1M) exposure, individual animals 1-6): 2 (3×) and 3 and 0 and 1
Cough, observation period 9-10, Total (min 9-10 of citric acid (1M) exposure, sum over 6 animals): 10.0
Cough, observation period 10-11, Mean (min 10-11, post exposure, group mean, n=6): 1.5
Cough, observation period 10-11, individual animal (min 10-11, post exposure, individual animals 1-6): 1 (3×) and 2 (3×)
Cough, observation period 10-11, Total (min 10-11, post exposure, sum over 6 animals): 9.0
Cough, observation period 11-12, Mean (min 11-12, post exposure, group mean, n=6): 0.5
Cough, observation period 11-12, individual animal (min 11-12, post exposure, individual animals 1-6): 0 (3×) and 1 (3×)
Cough, observation period 11-12, Total (min 11-12, post exposure, sum over 6 animals): 3.0
Cough, observation period 12-13, Mean (min 12-13, post exposure, group mean, n=6): 0.5
Cough, observation period 12-13, individual animal (min 12-13, post exposure, individual animals 1-6): 1 (3×) and 0 (3×)
Cough, observation period 12-13, Total (min 12-13, post exposure, sum over 6 animals): 3.0
Cough, observation period 13-14, Mean (min 13-14, post exposure, group mean, n=6): 0.2
Cough, observation period 13-14, individual animal (min 13-14, post exposure, individual animals 1-6): 0 (5×) and 1
Cough, observation period 13-14, Total (min 13-14, post exposure, sum over 6 animals): 1.0
Cough, observation period 14-15, Mean (min 14-15, post exposure, group mean, n=6): 0.0
Cough, observation period 14-15, individual animal (min 14-15, post exposure, individual animals 1-6): 0
Cough, observation period 14-15, Total (min 14-15, post exposure, sum over 6 animals): 0.0
